Tests used:
[1] = Effect on respiration, blood pressure, heart rate and electrocardiogram; assay type: in vivo, Beagle dogs; conditions: for NOAEL: dog, in vivo, iv, injected into brachial veins, anesthetized Beagle dogs, read-out: maximum dosage not effected on respiration, blood pressure, heart rate and electrocardiogram
Protocol: Beagle dogs of both sexes weighing about 10 kg were anesthetized with pentobarbital sodium (30 mg/kg, i.v.), and immobilized in the supine position. Test compounds dissolved in physiological saline solution were injected into the brachial veins of the animals and the arteries at cannulated positions were treated with heparin sodium as anticoagulant.
The respiration rate of each animal was estimated with a respirometer (Nihonkohden, RP-3) through a tracheal cannula, the blood pressure with an electro-haemodynamometer (Nihonkohden, MP-4T) attached surgically to the femoral artery, and the heart rate with a pulse-rate tachometer (Nihonkohden, RT-2) through the trigger pulse of the blood pressure.

[2] = system: various kinds of bacteria; assay: Antibacterial activity (overall statement); assay type: cell-based; conditions: Table VI
Text: Using 6DCNU and 6MCαG, minimum inhibiting concentrations (referred to as "MIC") for various kinds of bacteria were estimated by means of the broth-dilution method.

[3] = known compounds, generally seen; cited from earlier work

| SMILES | maximum dosage without effect, comparison in words ([1]; Beagle dogs) | NOAEL [1] [mg/kg] | antibacterial activity, in words [2] | diabetogenic activity, decreasing order [3] |
| --- | --- | --- | --- | --- |
| O=NN(CCCl)C(=O)NC[C@H]1OC(O)[C@H](O)[C@@H](O)[C@@H]1O (stereo partly drawn) [Example 6DCNU, 3-(D-glucopyranos-6-yl)-1-(2-chloroethyl)-1-nitrosourea] | highest dosage value | 70 | no substantial antibacterial activity |  |
| CO[C@H]1O[C@H](CNC(=O)N(CCCl)N=O)[C@@H](O)[C@H](O)[C@H]1O [Example 6MCαG, 1-(2-chloroethyl)-3-(methyl α-D-glucopyranos-6-yl)-1-nitrosourea] |  | 50 |  | SZ>DCNU>GANU> 2MCαG≈6MCαG |

Source: US4156777A, “Process for producing glucopyranose-nitrosourea compounds and novel compounds included therein” (Tokyo Tanabe Company, Limited, priority 1977, dated 1979)
